# Source: the supplement of paper PMC12463676, “Small-molecule dissolution of stress granules by redox modulation benefits ALS models” (Nature Chemical Biology, 2025)
# Compound: NC(=O)CCCCC1CCSS1 [lipoamide]
# Assay: thermal stability z-score vs DMSO; higher = more thermally stabilized by treatment
# Conditions: HeLa; lipoamide concentration 100 µM; arsenate co-treatment: 1 mM arsenate 1 h
# Description: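 Cellular thermal proteome profiling in HeLa cells. Cells were treated with 100 µM lipoamide for 1 h, with or without 1 mM arsenate for a further 1 h, then heated to ten temperatures (37-66.3 °C), and soluble protein was quantified by TMT mass spectrometry relative to 0.1% DMSO controls. The thermal stability score (sum of log2 fold changes minus the abundance score) was transformed to a z-score; mean of n = 3 experiments.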
# 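Note: each temperature applied for 3 min, abundance score taken as mean log2 fold change at the two lowest temperatures, z-score obtained by mean subtraction and division by SD.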
# Chain of UniProt O60264 (O60264 whole entry): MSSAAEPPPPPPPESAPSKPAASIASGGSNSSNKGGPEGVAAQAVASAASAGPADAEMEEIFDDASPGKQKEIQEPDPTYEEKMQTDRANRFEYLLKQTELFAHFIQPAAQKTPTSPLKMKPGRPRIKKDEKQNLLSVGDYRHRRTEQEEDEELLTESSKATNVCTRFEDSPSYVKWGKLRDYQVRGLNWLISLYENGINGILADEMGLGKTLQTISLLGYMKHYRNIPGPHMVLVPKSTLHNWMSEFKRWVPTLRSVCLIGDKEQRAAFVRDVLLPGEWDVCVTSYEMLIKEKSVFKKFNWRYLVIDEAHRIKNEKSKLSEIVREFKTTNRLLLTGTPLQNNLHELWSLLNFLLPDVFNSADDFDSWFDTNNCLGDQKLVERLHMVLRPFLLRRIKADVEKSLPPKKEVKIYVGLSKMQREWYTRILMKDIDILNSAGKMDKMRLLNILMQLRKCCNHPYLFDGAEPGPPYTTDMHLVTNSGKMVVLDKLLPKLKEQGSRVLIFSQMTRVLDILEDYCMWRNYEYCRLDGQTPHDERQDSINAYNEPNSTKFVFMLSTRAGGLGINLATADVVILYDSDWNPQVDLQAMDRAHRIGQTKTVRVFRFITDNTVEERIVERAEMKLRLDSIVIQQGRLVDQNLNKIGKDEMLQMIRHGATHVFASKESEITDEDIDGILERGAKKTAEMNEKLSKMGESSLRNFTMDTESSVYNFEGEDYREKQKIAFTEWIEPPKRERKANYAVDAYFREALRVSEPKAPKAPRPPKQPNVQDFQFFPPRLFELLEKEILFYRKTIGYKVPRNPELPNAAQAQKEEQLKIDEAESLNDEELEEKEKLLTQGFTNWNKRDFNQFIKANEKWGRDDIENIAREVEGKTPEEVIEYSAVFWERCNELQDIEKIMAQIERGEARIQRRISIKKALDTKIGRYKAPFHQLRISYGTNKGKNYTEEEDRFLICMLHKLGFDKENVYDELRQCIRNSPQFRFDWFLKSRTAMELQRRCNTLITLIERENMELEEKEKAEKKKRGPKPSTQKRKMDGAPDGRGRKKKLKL
# Chain of UniProt P48729 (P48729 whole entry, looked up): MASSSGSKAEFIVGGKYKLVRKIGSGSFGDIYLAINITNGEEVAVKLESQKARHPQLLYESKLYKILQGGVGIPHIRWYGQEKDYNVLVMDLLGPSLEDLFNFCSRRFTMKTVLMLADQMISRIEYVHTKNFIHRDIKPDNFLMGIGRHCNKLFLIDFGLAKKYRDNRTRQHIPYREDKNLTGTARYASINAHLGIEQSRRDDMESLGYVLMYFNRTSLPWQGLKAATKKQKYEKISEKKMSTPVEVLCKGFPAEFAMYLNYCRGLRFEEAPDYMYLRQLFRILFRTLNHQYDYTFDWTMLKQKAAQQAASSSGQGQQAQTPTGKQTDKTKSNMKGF
# Chain of UniProt O14907 (O14907 whole entry): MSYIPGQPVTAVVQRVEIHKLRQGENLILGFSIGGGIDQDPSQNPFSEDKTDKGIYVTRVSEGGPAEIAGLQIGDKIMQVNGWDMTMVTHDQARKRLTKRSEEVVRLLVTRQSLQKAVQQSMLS
# Chain of UniProt Q8TDD1 (Q8TDD1 whole entry): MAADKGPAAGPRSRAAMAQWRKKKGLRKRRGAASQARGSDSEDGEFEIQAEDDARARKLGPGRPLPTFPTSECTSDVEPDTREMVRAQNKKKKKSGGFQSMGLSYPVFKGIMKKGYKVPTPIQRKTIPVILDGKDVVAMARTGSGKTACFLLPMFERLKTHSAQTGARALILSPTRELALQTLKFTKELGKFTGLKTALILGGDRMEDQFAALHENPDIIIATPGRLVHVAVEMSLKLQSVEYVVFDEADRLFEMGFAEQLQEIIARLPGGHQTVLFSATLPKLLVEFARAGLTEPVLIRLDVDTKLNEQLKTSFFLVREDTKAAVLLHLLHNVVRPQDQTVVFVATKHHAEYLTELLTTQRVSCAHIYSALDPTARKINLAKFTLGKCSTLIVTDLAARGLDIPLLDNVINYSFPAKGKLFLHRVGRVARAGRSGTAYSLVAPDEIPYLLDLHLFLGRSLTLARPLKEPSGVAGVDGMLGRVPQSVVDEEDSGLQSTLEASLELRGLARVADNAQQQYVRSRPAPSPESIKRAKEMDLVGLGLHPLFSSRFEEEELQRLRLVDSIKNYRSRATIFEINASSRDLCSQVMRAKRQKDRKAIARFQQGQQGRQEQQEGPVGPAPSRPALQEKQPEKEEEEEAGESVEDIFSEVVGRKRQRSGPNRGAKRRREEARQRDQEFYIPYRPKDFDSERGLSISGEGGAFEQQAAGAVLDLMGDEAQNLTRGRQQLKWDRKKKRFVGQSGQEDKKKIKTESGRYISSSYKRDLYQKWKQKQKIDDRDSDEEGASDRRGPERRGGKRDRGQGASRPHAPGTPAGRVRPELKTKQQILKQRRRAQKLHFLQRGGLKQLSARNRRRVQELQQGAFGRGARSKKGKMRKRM
# Chain of UniProt P51530 (P51530 whole entry): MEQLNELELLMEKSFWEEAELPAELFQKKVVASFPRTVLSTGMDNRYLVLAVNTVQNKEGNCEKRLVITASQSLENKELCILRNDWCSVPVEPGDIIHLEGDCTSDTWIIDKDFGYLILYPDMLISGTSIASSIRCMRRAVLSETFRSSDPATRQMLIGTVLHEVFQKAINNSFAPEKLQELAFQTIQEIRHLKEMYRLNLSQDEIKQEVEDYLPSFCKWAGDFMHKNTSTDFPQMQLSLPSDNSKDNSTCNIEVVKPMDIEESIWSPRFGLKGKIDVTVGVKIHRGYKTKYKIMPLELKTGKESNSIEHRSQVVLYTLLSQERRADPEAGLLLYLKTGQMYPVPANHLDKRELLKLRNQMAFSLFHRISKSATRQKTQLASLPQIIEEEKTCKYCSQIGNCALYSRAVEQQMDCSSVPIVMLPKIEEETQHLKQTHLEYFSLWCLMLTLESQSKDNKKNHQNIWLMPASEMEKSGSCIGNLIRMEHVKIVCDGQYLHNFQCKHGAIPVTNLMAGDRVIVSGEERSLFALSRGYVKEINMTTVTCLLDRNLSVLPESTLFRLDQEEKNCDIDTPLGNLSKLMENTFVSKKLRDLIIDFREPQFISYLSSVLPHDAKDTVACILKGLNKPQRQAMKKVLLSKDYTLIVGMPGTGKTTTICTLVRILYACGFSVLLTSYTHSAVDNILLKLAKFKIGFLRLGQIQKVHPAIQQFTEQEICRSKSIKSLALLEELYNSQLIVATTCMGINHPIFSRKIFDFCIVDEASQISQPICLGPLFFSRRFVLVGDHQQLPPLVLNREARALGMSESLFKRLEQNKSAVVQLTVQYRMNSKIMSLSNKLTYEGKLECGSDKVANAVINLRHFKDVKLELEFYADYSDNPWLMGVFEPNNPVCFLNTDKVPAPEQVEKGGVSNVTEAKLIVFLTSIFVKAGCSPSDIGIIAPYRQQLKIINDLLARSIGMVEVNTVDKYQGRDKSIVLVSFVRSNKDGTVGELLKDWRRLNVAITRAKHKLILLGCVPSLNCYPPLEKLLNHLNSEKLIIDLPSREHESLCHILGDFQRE
# Chain of UniProt Q15363 (Q15363 whole entry): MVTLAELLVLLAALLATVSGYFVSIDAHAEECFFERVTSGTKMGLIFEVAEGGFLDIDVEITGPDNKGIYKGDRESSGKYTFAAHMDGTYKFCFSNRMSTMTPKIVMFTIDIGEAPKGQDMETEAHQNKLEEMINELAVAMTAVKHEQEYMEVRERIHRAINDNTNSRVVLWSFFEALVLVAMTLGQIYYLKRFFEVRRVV
# Chain of UniProt Q15006 (Q15006 whole entry): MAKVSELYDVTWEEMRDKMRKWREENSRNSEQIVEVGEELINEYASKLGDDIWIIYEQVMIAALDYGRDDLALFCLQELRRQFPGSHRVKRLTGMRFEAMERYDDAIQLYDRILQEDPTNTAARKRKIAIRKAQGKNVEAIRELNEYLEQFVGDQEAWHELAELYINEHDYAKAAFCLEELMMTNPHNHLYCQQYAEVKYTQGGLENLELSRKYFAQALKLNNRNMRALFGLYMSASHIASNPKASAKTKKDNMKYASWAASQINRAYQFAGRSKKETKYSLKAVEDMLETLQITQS
# Chain of UniProt Q5PRF9 (Q5PRF9 whole entry): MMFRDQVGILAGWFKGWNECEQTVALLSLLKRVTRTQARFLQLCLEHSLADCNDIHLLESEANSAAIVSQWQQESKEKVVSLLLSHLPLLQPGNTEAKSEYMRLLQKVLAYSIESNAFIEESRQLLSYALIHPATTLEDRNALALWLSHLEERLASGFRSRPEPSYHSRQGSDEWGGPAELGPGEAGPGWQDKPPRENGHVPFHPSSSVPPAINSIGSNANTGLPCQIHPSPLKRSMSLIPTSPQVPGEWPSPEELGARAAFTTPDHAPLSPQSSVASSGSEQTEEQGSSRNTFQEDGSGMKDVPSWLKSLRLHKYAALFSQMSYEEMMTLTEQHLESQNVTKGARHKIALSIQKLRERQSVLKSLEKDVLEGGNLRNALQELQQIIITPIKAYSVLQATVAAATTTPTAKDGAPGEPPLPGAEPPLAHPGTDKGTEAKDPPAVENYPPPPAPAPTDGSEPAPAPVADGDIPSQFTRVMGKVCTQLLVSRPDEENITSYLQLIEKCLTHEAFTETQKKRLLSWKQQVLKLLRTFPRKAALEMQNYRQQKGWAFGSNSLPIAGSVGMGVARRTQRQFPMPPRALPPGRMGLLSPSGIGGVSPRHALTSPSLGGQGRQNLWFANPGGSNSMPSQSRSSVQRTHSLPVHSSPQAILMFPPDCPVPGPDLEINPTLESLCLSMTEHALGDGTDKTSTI
# Chain of UniProt Q9NRG7 (Q9NRG7 whole entry): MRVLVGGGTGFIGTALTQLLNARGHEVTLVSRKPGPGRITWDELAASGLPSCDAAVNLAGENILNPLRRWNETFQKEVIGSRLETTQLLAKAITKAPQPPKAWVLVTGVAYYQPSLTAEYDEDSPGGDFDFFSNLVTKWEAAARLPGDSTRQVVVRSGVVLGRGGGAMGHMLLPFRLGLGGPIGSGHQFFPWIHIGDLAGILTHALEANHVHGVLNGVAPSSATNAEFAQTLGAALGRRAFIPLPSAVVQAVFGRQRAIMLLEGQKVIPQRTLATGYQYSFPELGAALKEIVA
row,Target,thermal stability z-score
1,LYSMD2 (UniProt Q8IV50),1.24
2,SRP9 (UniProt P49458),0.432
3,CCS (UniProt O14618),1.32
4,PRUNE (UniProt Q86TP1),-0.709
5,LACTB (UniProt P83111),-0.437
6,CLMP (UniProt Q9H6B4),0.616
7,GNAI3 (UniProt P08754),0.0735
8,SLC7A6 (UniProt Q92536),-0.86
9,ABCB1 (UniProt P08183),0.00691
10,PPP2R5E (UniProt Q16537),0.219
11,TMEM68 (UniProt Q96MH6),0.361
12,NME6 (UniProt O75414),0.102
13,DICER1 (UniProt Q9UPY3),0.656
14,SAMD4B (UniProt Q5PRF9),0.14
15,MKRN1 (UniProt Q9UHC7),-0.0831
16,IMPAD1 (UniProt Q9NX62),-0.426
17,SHMT2 (UniProt P34897),-0.198
18,APOO (UniProt Q9BUR5),0.803
19,CELSR2 (UniProt Q9HCU4),-1.53
20,STAT5B (UniProt P51692),-0.378
21,RUSC1 (UniProt Q9BVN2),0.0753
22,EXOC2 (UniProt Q96KP1),-0.195
23,EEF1G (UniProt P26641),0.0213
24,CASC5 (UniProt Q8NG31),-0.0952

row,Target,thermal stability z-score
1,TMEM63B (UniProt Q5T3F8),-0.865
2,SDR39U1 (UniProt Q9NRG7),0.717
3,DDX54 (UniProt Q8TDD1),-0.154
4,CKAP5 (UniProt Q14008),-0.095
5,DERA (UniProt Q9Y315),0.0875
6,PRRC1 (UniProt Q96M27),0.101
7,PEX11B (UniProt O96011),-0.443
8,ERP29 (UniProt P30040),-0.51
9,ZNRF2 (UniProt Q8NHG8),-0.729
10,PISD (UniProt Q9UG56),0.488
11,CSNK1A1 (UniProt P48729),-0.534
12,USP34 (UniProt Q70CQ2),0.544
13,SMYD4 (UniProt Q8IYR2),-0.0691
14,SHOC2 (UniProt Q9UQ13),0.22
15,UniProt F5H5P2|BCKDHA,-0.168
16,MPHOSPH6 (UniProt Q99547),0.29
17,TADA3 (UniProt O75528),0.0748
18,SMARCA5 (UniProt O60264),0.76
19,STXBP5 (UniProt Q5T5C0),0.208
20,UniProt E7EQ34|GOSR2,-0.785
21,EMC2 (UniProt Q15006),-0.278
22,GNAQ (UniProt P50148),-0.312
23,RB1 (UniProt P06400),0.306
24,RAB22A (UniProt Q9UL26),0.482

row,Target,thermal stability z-score
1,DENND4B (UniProt O75064),0.182
2,LRRFIP2 (UniProt Q9Y608),1.31
3,TUBG1 (UniProt P23258),0.135
4,TAX1BP3 (UniProt O14907),0.0819
5,BEGAIN (UniProt Q9BUH8),-0.0429
6,PNN (UniProt Q9H307),1.03
7,FAM83B (UniProt Q5T0W9),-0.567
8,ATG2B (UniProt Q96BY7),-0.149
9,RRS1 (UniProt Q15050),1.32
10,COQ3 (UniProt Q9NZJ6),0.083
11,POP4 (UniProt O95707),0.462
12,TNRC6A (UniProt Q8NDV7),-0.105
13,GNPNAT1 (UniProt Q96EK6),0.365
14,CCNK (UniProt O75909),0.743
15,WBP11 (UniProt Q9Y2W2),0.102
16,MAT2A (UniProt P31153),-0.418
17,ZBED1 (UniProt O96006),-0.243
18,PKN1 (UniProt Q16512),-0.436
19,DNA2 (UniProt P51530),-0.0519
20,CLTB (UniProt P09497),1.48
21,TMED2 (UniProt Q15363),-0.867
22,SUB1 (UniProt P53999),0.206
23,APOB (UniProt P04114),-0.228

# Same assay, conditions: HeLa; lipoamide concentration 100 µM; arsenate co-treatment: none
row,Target,thermal stability z-score
1,LYSMD2 (UniProt Q8IV50),0.886
2,SRP9 (UniProt P49458),0.761
3,CCS (UniProt O14618),0.653
4,PRUNE (UniProt Q86TP1),-0.433
5,LACTB (UniProt P83111),-0.129
6,CLMP (UniProt Q9H6B4),1.03
7,GNAI3 (UniProt P08754),0.0764
8,SLC7A6 (UniProt Q92536),-0.83
9,ABCB1 (UniProt P08183),0.00658
10,PPP2R5E (UniProt Q16537),0.285
11,TMEM68 (UniProt Q96MH6),-0.287
12,NME6 (UniProt O75414),0.493
13,DICER1 (UniProt Q9UPY3),0.00487
14,SAMD4B (UniProt Q5PRF9),0.116
15,MKRN1 (UniProt Q9UHC7),-0.0834
16,IMPAD1 (UniProt Q9NX62),-0.356
17,SHMT2 (UniProt P34897),-0.436
18,APOO (UniProt Q9BUR5),0.64
19,CELSR2 (UniProt Q9HCU4),-2.3
20,STAT5B (UniProt P51692),-0.11
21,RUSC1 (UniProt Q9BVN2),0.00504
22,EXOC2 (UniProt Q96KP1),-0.453
23,EEF1G (UniProt P26641),0.149
24,CASC5 (UniProt Q8NG31),-0.0158

row,Target,thermal stability z-score
1,TMEM63B (UniProt Q5T3F8),-0.374
2,SDR39U1 (UniProt Q9NRG7),0.0552
3,DDX54 (UniProt Q8TDD1),-0.015
4,CKAP5 (UniProt Q14008),-0.0102
5,DERA (UniProt Q9Y315),-0.0376
6,PRRC1 (UniProt Q96M27),0.135
7,PEX11B (UniProt O96011),-0.349
8,ERP29 (UniProt P30040),-0.193
9,ZNRF2 (UniProt Q8NHG8),-0.885
10,PISD (UniProt Q9UG56),0.414
11,CSNK1A1 (UniProt P48729),-0.478
12,USP34 (UniProt Q70CQ2),0.668
13,SMYD4 (UniProt Q8IYR2),-0.00905
14,SHOC2 (UniProt Q9UQ13),-0.229
15,UniProt F5H5P2|BCKDHA,-0.738
16,MPHOSPH6 (UniProt Q99547),-0.917
17,TADA3 (UniProt O75528),0.099
18,SMARCA5 (UniProt O60264),1.44
19,STXBP5 (UniProt Q5T5C0),0.496
20,UniProt E7EQ34|GOSR2,-0.401
21,EMC2 (UniProt Q15006),-0.164
22,GNAQ (UniProt P50148),0.15
23,RB1 (UniProt P06400),0.229
24,RAB22A (UniProt Q9UL26),0.207

row,Target,thermal stability z-score
1,DENND4B (UniProt O75064),-0.0196
2,LRRFIP2 (UniProt Q9Y608),1.11
3,TUBG1 (UniProt P23258),-0.106
4,TAX1BP3 (UniProt O14907),-0.232
5,BEGAIN (UniProt Q9BUH8),-0.117
6,PNN (UniProt Q9H307),0.507
7,FAM83B (UniProt Q5T0W9),-0.89
8,ATG2B (UniProt Q96BY7),0.0605
9,RRS1 (UniProt Q15050),-0.132
10,COQ3 (UniProt Q9NZJ6),0.759
11,POP4 (UniProt O95707),0.069
12,TNRC6A (UniProt Q8NDV7),-0.121
13,GNPNAT1 (UniProt Q96EK6),-0.348
14,CCNK (UniProt O75909),-0.222
15,WBP11 (UniProt Q9Y2W2),0.283
16,MAT2A (UniProt P31153),-0.422
17,ZBED1 (UniProt O96006),-0.292
18,PKN1 (UniProt Q16512),-0.52
19,DNA2 (UniProt P51530),-0.0211
20,CLTB (UniProt P09497),1.89
21,TMED2 (UniProt Q15363),-1.06
22,SUB1 (UniProt P53999),0.0783
23,APOB (UniProt P04114),0.0547

# Compound: O=[As]([O-])(O)O.[K+] [potassium arsenate]
# Assay: as above
# Conditions: HeLa; arsenate concentration 1 mM
# Description: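 Cellular thermal proteome profiling in HeLa cells treated with 1 mM arsenate for 1 h (DMSO pretreatment), heated to ten temperatures (37-66.3 °C). Soluble protein was quantified by TMT mass spectrometry relative to DMSO controls; the thermal stability score was transformed to a z-score; mean of n = 3 experiments.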
row,Target,thermal stability z-score
1,LYSMD2 (UniProt Q8IV50),1.46
2,SRP9 (UniProt P49458),-0.335
3,CCS (UniProt O14618),3.23
4,PRUNE (UniProt Q86TP1),0.291
5,LACTB (UniProt P83111),-0.604
6,CLMP (UniProt Q9H6B4),-0.738
7,GNAI3 (UniProt P08754),-1.24
8,SLC7A6 (UniProt Q92536),-0.695
9,ABCB1 (UniProt P08183),-0.039
10,PPP2R5E (UniProt Q16537),0.682
11,TMEM68 (UniProt Q96MH6),-0.552
12,NME6 (UniProt O75414),0.083
13,DICER1 (UniProt Q9UPY3),-0.398
14,SAMD4B (UniProt Q5PRF9),-0.143
15,MKRN1 (UniProt Q9UHC7),-0.138
16,IMPAD1 (UniProt Q9NX62),-0.352
17,SHMT2 (UniProt P34897),0.0996
18,APOO (UniProt Q9BUR5),0.23
19,CELSR2 (UniProt Q9HCU4),-0.894
20,STAT5B (UniProt P51692),0.0458
21,RUSC1 (UniProt Q9BVN2),-0.0614
22,EXOC2 (UniProt Q96KP1),0.575
23,EEF1G (UniProt P26641),0.215
24,CASC5 (UniProt Q8NG31),0.219

row,Target,thermal stability z-score
1,TMEM63B (UniProt Q5T3F8),-0.606
2,SDR39U1 (UniProt Q9NRG7),0.471
3,DDX54 (UniProt Q8TDD1),-0.136
4,CKAP5 (UniProt Q14008),0.286
5,DERA (UniProt Q9Y315),-0.0631
6,PRRC1 (UniProt Q96M27),-0.142
7,PEX11B (UniProt O96011),-0.497
8,ERP29 (UniProt P30040),0.32
9,ZNRF2 (UniProt Q8NHG8),-2.6
10,PISD (UniProt Q9UG56),0.0415
11,CSNK1A1 (UniProt P48729),1.08
12,USP34 (UniProt Q70CQ2),-0.384
13,SMYD4 (UniProt Q8IYR2),-0.0713
14,SHOC2 (UniProt Q9UQ13),-0.00952
15,UniProt F5H5P2|BCKDHA,0.969
16,MPHOSPH6 (UniProt Q99547),-2.13
17,TADA3 (UniProt O75528),0.199
18,SMARCA5 (UniProt O60264),-0.922
19,STXBP5 (UniProt Q5T5C0),1.77
20,UniProt E7EQ34|GOSR2,-0.878
21,EMC2 (UniProt Q15006),0.472
22,GNAQ (UniProt P50148),-1.39
23,RB1 (UniProt P06400),-0.64
24,RAB22A (UniProt Q9UL26),-0.396

row,Target,thermal stability z-score
1,DENND4B (UniProt O75064),0.288
2,LRRFIP2 (UniProt Q9Y608),1.07
3,TUBG1 (UniProt P23258),0.415
4,TAX1BP3 (UniProt O14907),0.424
5,BEGAIN (UniProt Q9BUH8),0.144
6,PNN (UniProt Q9H307),-0.467
7,FAM83B (UniProt Q5T0W9),-2.02
8,ATG2B (UniProt Q96BY7),-0.0277
9,RRS1 (UniProt Q15050),-2.24
10,COQ3 (UniProt Q9NZJ6),1.9
11,POP4 (UniProt O95707),-0.193
12,TNRC6A (UniProt Q8NDV7),-0.416
13,GNPNAT1 (UniProt Q96EK6),-1.03
14,CCNK (UniProt O75909),-0.771
15,WBP11 (UniProt Q9Y2W2),0.254
16,MAT2A (UniProt P31153),0.337
17,ZBED1 (UniProt O96006),0.00958
18,PKN1 (UniProt Q16512),-0.513
19,DNA2 (UniProt P51530),-0.131
20,CLTB (UniProt P09497),0.557
21,TMED2 (UniProt Q15363),0.624
22,SUB1 (UniProt P53999),0.0838
23,APOB (UniProt P04114),-0.328
